Key:
[1] = test system: PHF5A variant expressing HCT116 cells; experiment: 72 h growth inhibition profiling (CellTiter-Glo) of PHF5A WT- or Y36/V37 variant-expressing HCT116 cells; assay type: cell-based; conditions: HCT116, 72 h
Protocol: (§1) Parental HCT116 cells were obtained from ATCC and cultured in RPMI 1,640 medium (Thermo Fisher, GIBCO#11875) supplemented with 10% fetal bovine serum (FBS). Parental Panc0504 cells were obtained from ATCC and cultured in GIBCO RPMI 1,640 medium (Thermo Fisher, GIBCO#11875) supplemented with glucose (to 4.5 g l^−1 final), HEPES (10 mM final), sodium pyruvate (1 mM final), human insulin (10 μg ml^−1 final) and 15% FBS. Cell line authentication was achieved by genetic profiling using polymorphic short tandem repeat (STR) loci (ATCC). All cell lines were free of mycoplasma contamination. […]
(§2) For CellTiter-Glo analysis, 500 cells were seeded in each well of a 384-well plate the day before compound addition. […] Seventy-two hours post compound addition, CellTiter-Glo reagent was added to the medium, incubated and assayed on EnVision Multilabel Reader (PerkinElmer). The luminescence value from each treatment sample was normalized to the average value of the respective DMSO control. […] For heatmap summarization of IC50 shifts, IC50 value was extracted from dosage response curves and the fold changes of IC50 values in PHF5A variants expressing lines over that of the WT lines were calculated and plotted using TIBCO Spotfire software. […]

[2] = test system: HCT116 resistant clones (SF3B1-R1074H, SF3B1-V1078A/I, PHF5A-Y36C); experiment: 72 h growth inhibition profiling (CellTiter-Glo) of E7107- and herboxidiene-resistant HCT116 clones; assay type: cell-based; conditions: HCT116 clones with SF3B1-R1074H, SF3B1-V1078 or PHF5A-Y36C; 72 h CellTiter-Glo
Protocol: In total, 2.5 million HCT116 cells were seeded in each 10 cm dish and treated with indicated dosages of splicing modulators for 2 weeks. Compounds were refreshed every 4 days. When needed, confluent dishes were split 1:3 and cells were allowed to recover overnight without splicing modulator treatment after re-seeding. At the end of the compound selection period, surviving individual clones were picked and transferred to 12-well plates. Individual resistant clones were further expanded without splicing modulator treatment and one million cells from each clone were pelleted for genomic DNA extraction using the DNeasy Blood & Tissue Kit from Qiagen. WXS libraries were generated by Novogene Corporation using Agilent SureSelect Human All Exon V6 kit and sequenced on Illumina HiSeq platform. 12G raw data were gathered for each sample. WXS reads were then aligned to hg19 by BWA-MEM[40] and somatic mutations were identified with MuTect2 (ref. [41]) through Sentieon pipeline[42] by pairing resistant clone with parental cell lines. As we selected the resistant clones for WXS, the allele frequencies for the mutations which are responsible for the resistance should be high. We focused on non-silent mutations (among the H3 curated spliceosome genes) with allele frequency higher than 0.2.
(§3) For CellTiter-Glo analysis, 500 cells were seeded in each well of a 384-well plate the day before compound addition. An 11 pt serial dilution was used starting with a top final dosage of 10 μM for 10 additional doses. DMSO percentage was maintained throughout and a DMSO-only control was included. Seventy-two hours post compound addition, CellTiter-Glo reagent was added to the medium, incubated and assayed on EnVision Multilabel Reader (PerkinElmer). The luminescence value from each treatment sample was normalized to the average value of the respective DMSO control. The dosage response curve plots were generated using Graphpad Prism 6 and fit using nonlinear regression analysis and the log(inhibitor) versus response—Variable slope (four parameters). For heatmap summarization of IC50 shifts, IC50 value was extracted from dosage response curves and the fold changes of IC50 values in PHF5A variants expressing lines over that of the WT lines were calculated and plotted using TIBCO Spotfire software. For IC50s greater than the top dosage, the values were arbitrarily set at 10 μM. Unsupervised clustering analysis was performed in TIBCO Spotfire using the following default parameters: Clustering method: UPGMA; Distance measure: Euclidean; Ordering weight: Average value; Normalization: (None); Empty value replacement: Constant value: 0.

[3] = test system: HCT116 cells; experiment: 72 h growth inhibition profiling (CellTiter-Glo cellular viability assay), parental HCT116; assay type: cell-based; conditions: in HCT116
Protocol: as §3

[4] = test system: splicing of SLC25A19, EIF4A1 and MCL1; experiment: Taqman gene expression assay (SLC25A19 mRNA, EIF4A1 pre-mRNA, MCL1 isoforms) in PHF5A WT or Y36C HCT116 cells; assay type: cell-based; conditions: for induction of MCL1 ES and IR events: PHF5A WT cells, dose response, 4 h
Protocol: Eight thousand cells of indicated genotypes were seeded in each well of 96-well plate and allowed to settle overnight. On the second day, 11 pt serial dilution (1:4 fold dilution across) of indicated compound with a top dosage of 10 μM final was added to the culturing medium. Four hours post compound addition, culturing medium was decanted and washed once with PBS. PBS was then decanted completely from the plate and Lysis buffer (plus DNase I) from TaqMan Gene Expression Cells-to-CT Kit (Thermo Fisher, cat # AM1729) was added according to the manual. After 5 min incubation at RT on the shaker, stop solution was added to each well and incubated for 2 min. Reverse transcription was set up immediately using the Cells-to-CT Kit and cDNAs were used for quantitative real-time PCR analysis using Viia7 (Thermo Fisher). Each reaction is multiplexed with an FAM-labelled probe targeting specific target gene splicing isoforms and a VIC-labelled probe targeted 18S rRNA as loading control. Therefore, the FAM Ct value in each well was first normalized to the VIC Ct value in the same well before further normalization to the FAM/VIC ratio of DMSO-treated control samples to calculate fold change over DMSO. Graphs were generated using Graphpad Prism 6, n=2. Taqman gene expression probes used in these assays are listed in Supplementary Table 1.

[5] = test system: PANC0504 cells; experiment: Growth inhibition of Panc0504 cells expressing PHF5A WT or Y36C; assay type: cell-based
Protocol: as §1, §2

[6] = test system: SF3B1 (R1074H); design: method as in PMID 21981285; conditions: single amino acid substitution R1074H in SF3B1; cited from earlier work
[7] = test system: global splicing (splice junction usage); experiment: RNA-seq differential splicing analysis in PHF5A WT or Y36C overexpressing cells; assay type: cell-based; conditions: 100 nM
Protocol: Either PHF5A WT or Y36C mutant-overexpressing cells were treated with either DMSO or E7107 (100 nM and 10 μM) for 6 h in hexaplicate before lysed in TRIzol reagent (Thermo Fisher). After phase separation, the top aqueous phase was further processed using MagMAX-96 Total RNA Isolation Kit (Thermo Fisher, AM1830) for RNA extraction. RNA quality was assessed using Agilent tapestation with RNA screen tape. RNA-seq libraries were prepared by Beijing Genomic Institute (BGI) and sequenced on Illumina Hiseq 4,000 for 6G clean reads per sample. RNA-seq reads were aligned to hg19 by STAR[50] and raw junction counts generated by STAR were used for calculating PSI to quantify splice junction usage relative to all other splice junctions that share the same splice site as described before. Differential PSI were assessed between a pair of sample groups using moderated t-test defined in limma package[52] in Bioconductor. […]
The number of reads which cover the splice junction which excludes a given cassette exon (ES reads) are compared with both the number of spliced reads which share its 3′ splice site yet have an alternative 5′ splice site bordering the cassette exon (exon inclusion reads) and the number of reads which cross the exon–intron boundary at that same 3′ splice site (IR reads). […]

| Molecule | resistance of resistant clones in growth inhibition profiling [2] | GI50 [3] | induction of MCL1 ES and IR events [4] | GI50 ([3]; Homo sapiens, HCT-116) | effect of SF3B1 R1074H on splicing-modulating and antiproliferative effects [6] | other results |
| --- | --- | --- | --- | --- | --- | --- |
| CC(C)C[C@H](NC(=O)[C@H](Cc1ccccc1)NC(=O)c1cnccn1)B(O)O [bortezomib, Bortezomib] | did not affect the cell lines' sensitivity |  |  |  |  | resistance in PHF5A Y36 variant expressing cells [1]: resistance only occurred to the treatment with splicing modulators but not bortezomib |
| CNC(=O)OC(C)C=CC(=O)NC1CCC(CC=C(C)C=CC2CC3(CO3)CC(C)(C)O2)CC1 (stereo not drawn) [sudemycin D6] | SF3B1-R1074H mutation also conferred better resistance | 149 nM | IR events were not observed |  |  |  |
| CC[C@H](O)[C@@H](C)[C@H]1O[C@@H]1C[C@@](C)(O)/C=C/C=C(\C)[C@H]1OC(=O)C[C@H](O)CC[C@@](C)(O)[C@@H](OC(=O)N2CCN(C3CCCCCC3)CC2)/C=C/[C@@H]1C [E7107] | SF3B1-R1074H mutation conferred the most robust resistance |  | ‘earlier' induction of MCL1 ES events than IR events at lower doses | 1.5 nM | almost completely abolished | resistance phenotype on PHF5A Y36C over-expression [5]: partial resistant phenotype; dominant MCL1 splicing event (Sashimi plot of RNA-seq) ([7]; PHF5A WT cells): IR was the dominant event; dominant MCL1 splicing event (Sashimi plot of RNA-seq) ([7]; PHF5A Y36C cells): mainly ES events were observed; MCL1-S production (ES events) in PHF5A-Y36C cells compared to WT ([4]; increasing dosage): enhanced to a higher level |
| CO[C@]1(C)C[C@@]2(CO2)[C@H](O)[C@@H](/C=C/C(C)=C/C[C@@H]2O[C@H](C)[C@H](NC(=O)/C=C\[C@H](C)OC(C)=O)C[C@@H]2C)O1 [spliceostatin A] | SF3B1-R1074H mutation also conferred better resistance | 0.76 nM |  |  |  |  |
| pladienolide B |  |  |  |  | almost completely abolished |  |
| COC(C(C)O)C(C)C1OC1(C)CC(C)C=CC=C(C)C1OC(CC(=O)O)CCC1C (stereo not drawn) [herboxidiene] | PHF5A-Y36C mutation rendered more resistance |  |  | 7.6 nM |  |  |
